The source made the active and inactive calls. The rule behind the calls is not given here.
Legend:
[1] = molecular target: T1, Nuclear factor NF-kappa-B complex (Homo sapiens) (UniProt Q00653+P19838+Q04206); experiment: Inhibition of non-stimulated NF-kappaB signaling (unknown origin) expressed in MDA-MB-231 cells at 5 uM incubated for 16 hrs by luciferase reporter gene assay; format: cell-based
[2] = molecular target: T1, Nuclear factor NF-kappa-B complex (Homo sapiens); experiment: Inhibition of doxorubicin-stimulated NF-kappaB signaling (unknown origin) expressed in MDA-MB-231 cells at 5 uM incubated for 16 hrs by luciferase reporter gene assay; format: cell-based
[3] = molecular target: T1, Nuclear factor NF-kappa-B complex (Homo sapiens); experiment: Inhibition of NF-kappaB signaling in human MDA-MB-231 cells assessed as reduction in PMA-stimulated MMP9 mRNA expression at 5 uM pre-incubated for 8 hrs before PMA stimulation for 4 hrs by quantitative RT-PCR method; format: cell-based
[4] = molecular target: T1, Nuclear factor NF-kappa-B complex (Homo sapiens); experiment: Inhibition of NF-kappaB signaling in human MDA-MB-231 cells assessed as reduction in PMA-stimulated COX2 mRNA expression at 5 uM pre-incubated for 8 hrs before PMA stimulation for 4 hrs by quantitative RT-PCR method; format: cell-based
[5] = molecular target: T1, Nuclear factor NF-kappa-B complex (Homo sapiens); experiment: Inhibition of basal NF-kappaB signaling in human MDA-MB-231 cells assessed as reduction in MMP9 mRNA expression at 25 uM by quantitative RT-PCR method relative to untreated control; format: cell-based
[6] = molecular target: T1, Nuclear factor NF-kappa-B complex (Homo sapiens); experiment: Inhibition of NF-kappaB signaling in human MDA-MB-231 cells assessed as reduction in PMA-stimulated MMP9 mRNA expression at 25 uM pre-incubated before PMA stimulation by quantitative RT-PCR method relative to untreated control; format: cell-based
[7] = molecular target: T1, Nuclear factor NF-kappa-B complex (Homo sapiens); experiment: Inhibition of basal NF-kappaB signaling in human MDA-MB-231 cells assessed as reduction in COX2 mRNA expression at 25 uM by quantitative RT-PCR method relative to untreated control; format: cell-based
[8] = molecular target: T1, Nuclear factor NF-kappa-B complex (Homo sapiens); experiment: Inhibition of NF-kappaB signaling in human MDA-MB-231 cells assessed as reduction in PMA-stimulated COX2 mRNA expression at 25 uM pre-incubated before PMA stimulation by quantitative RT-PCR method relative to untreated control; format: cell-based
MDA-MB-231 [9] = experiment: Induction apoptosis in PMA-stimulated human MDA-MB-231 cells assessed as mitochondrial disruption at 10 uM after 48 hrs by JC1 staining based fluorescence assay; format: functional, cell-based
[10] = molecular target: T1, Nuclear factor NF-kappa-B complex (Homo sapiens); experiment: Effect on NF-kappaB signaling in human MDA-MB-231 cells assessed as increase in MMP9 mRNA expression at 25 uM by quantitative RT-PCR method; format: cell-based
[11] = molecular target: T1, Nuclear factor NF-kappa-B complex (Homo sapiens); experiment: Effect on NF-kappaB signaling in human MDA-MB-231 cells assessed as increase in COX2 mRNA expression at 25 uM by quantitative RT-PCR method; format: cell-based
MDA-MB-231 [12] = experiment: Inhibition of cell migration of PMA-stimulated human MDA-MB-231 cells; format: functional, cell-based
MDA-MB-231 [13] = experiment: Induction apoptosis in PMA-stimulated human MDA-MB-231 cells assessed as mitochondrial disruption 3.125 to 25 uM uM after 48 hrs by JC1 staining based fluorescence assay; format: functional, cell-based
[14] = molecular target: T1, Nuclear factor NF-kappa-B complex (Homo sapiens); experiment: Inhibition of basal NF-kappaB signaling in human MDA-MB-231 cells assessed as reduction in MMP9 mRNA expression at 3.125 uM by quantitative RT-PCR method relative to untreated control; format: cell-based
[15] = molecular target: T1, Nuclear factor NF-kappa-B complex (Homo sapiens); experiment: Inhibition of basal NF-kappaB signaling in human MDA-MB-231 cells assessed as reduction in MMP9 mRNA expression at 6.25 uM by quantitative RT-PCR method relative to untreated control; format: cell-based
[16] = molecular target: T1, Nuclear factor NF-kappa-B complex (Homo sapiens); experiment: Inhibition of basal NF-kappaB signaling in human MDA-MB-231 cells assessed as reduction in MMP9 mRNA expression at 12.5 uM by quantitative RT-PCR method relative to untreated control; format: cell-based
[17] = molecular target: T1, Nuclear factor NF-kappa-B complex (Homo sapiens); experiment: Inhibition of basal NF-kappaB signaling in human MDA-MB-231 cells assessed as reduction in MMP9 mRNA expression at 50 uM by quantitative RT-PCR method relative to untreated control; format: cell-based
[18] = molecular target: T1, Nuclear factor NF-kappa-B complex (Homo sapiens); experiment: Inhibition of NF-kappaB signaling in human MDA-MB-231 cells assessed as reduction in PMA-stimulated MMP9 mRNA expression at 12.5 uM pre-incubated before PMA stimulation by quantitative RT-PCR method relative to untreated control; format: cell-based
[19] = molecular target: T1, Nuclear factor NF-kappa-B complex (Homo sapiens); experiment: Inhibition of NF-kappaB signaling in human MDA-MB-231 cells assessed as reduction in PMA-stimulated MMP9 mRNA expression at 50 uM pre-incubated before PMA stimulation by quantitative RT-PCR method relative to untreated control; format: cell-based
[20] = molecular target: T1, Nuclear factor NF-kappa-B complex (Homo sapiens); experiment: Inhibition of basal NF-kappaB signaling in human MDA-MB-231 cells assessed as reduction in MMP9 mRNA expression at 12.5 uM by quantitative RT-PCR method; format: cell-based
MDA-MB-231 [21] = experiment: Cytotoxicity against non-stimulated human MDA-MB-231 cells assessed as induction of cell death up to 25 uM after 48 hrs by MTT assay; format: functional
MDA-MB-231 [22] = experiment: Cytotoxicity against PMA-stimulated human MDA-MB-231 cells assessed as induction of cell death up to 25 uM after 48 hrs by MTT assay; format: functional
MDA-MB-231 [23] = experiment: Cytotoxicity against non-stimulated human MDA-MB-231 cells assessed as induction of cell death at 50 uM after 48 hrs by MTT assay; format: functional
MDA-MB-231 [24] = experiment: Cytotoxicity against PMA-stimulated human MDA-MB-231 cells assessed as induction of cell death at 50 uM after 48 hrs by MTT assay; format: functional
MDA-MB-231 [25] = experiment: Induction of cell cycle arrest in PMA-stimulated human MDA-MB-231 cells assessed as accumulation at G2/M phase at 25 uM after 48 hrs by propidium iodide staining based flow cytometry; format: functional
MDA-MB-231 [26] = experiment: Induction of cell cycle arrest in un-stimulated human MDA-MB-231 cells assessed as accumulation at G2/M phase at 25 uM after 48 hrs by propidium iodide staining based flow cytometry; format: functional
[27] = Toxicity against human MDA-MB-231 cells after 48 hrs by MTT assay; format: cell-based; settings: read-out: MNCC
MDA-MB-231 [28] = experiment: Induction of cell cycle arrest in PMA-stimulated human MDA-MB-231 cells assessed as accumulation at G1 phase at 25 uM after 48 hrs by propidium iodide staining based flow cytometry (reference value: 52%); format: functional
MDA-MB-231 [29] = experiment: Induction of cell cycle arrest in PMA-stimulated human MDA-MB-231 cells assessed as accumulation at S phase at 25 uM after 48 hrs by propidium iodide staining based flow cytometry (reference value: 29%); format: functional
MDA-MB-231 [30] = experiment: Induction of cell cycle arrest in PMA-stimulated human MDA-MB-231 cells assessed as accumulation at G2/M phase at 25 uM after 48 hrs by propidium iodide staining based flow cytometry (reference value: 19%); format: functional
MDA-MB-231 [31] = experiment: Inhibition of cell invasion of PMA-stimulated human MDA-MB-231 cells; format: functional, cell-based
MDA-MB-231 [32] = experiment: Induction apoptosis in PMA-stimulated human MDA-MB-231 cells assessed as mitochondrial disruption up to 50 uM uM after 48 hrs by JC1 staining based fluorescence assay; format: functional, cell-based
[33] = molecular target: T1, Nuclear factor NF-kappa-B complex (Homo sapiens); experiment: Inhibition of NF-kappaB signaling in human MDA-MB-231 cells assessed as reduction in PMA-stimulated MMP9 protein expression at 6.25 to 50 uM pre-incubated before PMA stimulation by SDS-PAGE gelatin zymography; format: cell-based

T1 sequence (P19838 whole entry, looked up): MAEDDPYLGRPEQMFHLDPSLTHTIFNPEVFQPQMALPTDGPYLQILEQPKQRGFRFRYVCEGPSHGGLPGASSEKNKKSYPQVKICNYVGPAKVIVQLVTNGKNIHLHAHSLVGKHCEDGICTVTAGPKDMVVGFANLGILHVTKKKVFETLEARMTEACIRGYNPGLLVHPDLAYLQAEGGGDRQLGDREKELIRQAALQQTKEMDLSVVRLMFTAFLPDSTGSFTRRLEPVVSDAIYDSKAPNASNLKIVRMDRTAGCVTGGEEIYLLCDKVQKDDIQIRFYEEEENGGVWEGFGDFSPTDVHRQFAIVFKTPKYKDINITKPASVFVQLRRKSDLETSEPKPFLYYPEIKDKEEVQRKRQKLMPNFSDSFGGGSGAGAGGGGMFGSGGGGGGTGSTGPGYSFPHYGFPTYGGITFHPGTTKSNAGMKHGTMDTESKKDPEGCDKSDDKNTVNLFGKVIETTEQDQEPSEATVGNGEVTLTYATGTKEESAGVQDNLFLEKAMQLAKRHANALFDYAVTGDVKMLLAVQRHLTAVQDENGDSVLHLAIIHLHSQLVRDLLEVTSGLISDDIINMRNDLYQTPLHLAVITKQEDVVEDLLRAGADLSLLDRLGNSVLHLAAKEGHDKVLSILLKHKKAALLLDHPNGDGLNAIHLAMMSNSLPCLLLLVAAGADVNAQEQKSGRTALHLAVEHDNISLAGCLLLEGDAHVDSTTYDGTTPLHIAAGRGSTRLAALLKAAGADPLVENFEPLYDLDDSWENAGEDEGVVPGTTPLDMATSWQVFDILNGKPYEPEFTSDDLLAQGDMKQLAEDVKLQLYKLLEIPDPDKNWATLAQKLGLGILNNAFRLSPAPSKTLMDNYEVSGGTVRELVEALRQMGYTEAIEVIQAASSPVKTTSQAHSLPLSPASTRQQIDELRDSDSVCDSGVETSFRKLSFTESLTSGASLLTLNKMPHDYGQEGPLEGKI
T1 sequence (Q00653 whole entry, looked up): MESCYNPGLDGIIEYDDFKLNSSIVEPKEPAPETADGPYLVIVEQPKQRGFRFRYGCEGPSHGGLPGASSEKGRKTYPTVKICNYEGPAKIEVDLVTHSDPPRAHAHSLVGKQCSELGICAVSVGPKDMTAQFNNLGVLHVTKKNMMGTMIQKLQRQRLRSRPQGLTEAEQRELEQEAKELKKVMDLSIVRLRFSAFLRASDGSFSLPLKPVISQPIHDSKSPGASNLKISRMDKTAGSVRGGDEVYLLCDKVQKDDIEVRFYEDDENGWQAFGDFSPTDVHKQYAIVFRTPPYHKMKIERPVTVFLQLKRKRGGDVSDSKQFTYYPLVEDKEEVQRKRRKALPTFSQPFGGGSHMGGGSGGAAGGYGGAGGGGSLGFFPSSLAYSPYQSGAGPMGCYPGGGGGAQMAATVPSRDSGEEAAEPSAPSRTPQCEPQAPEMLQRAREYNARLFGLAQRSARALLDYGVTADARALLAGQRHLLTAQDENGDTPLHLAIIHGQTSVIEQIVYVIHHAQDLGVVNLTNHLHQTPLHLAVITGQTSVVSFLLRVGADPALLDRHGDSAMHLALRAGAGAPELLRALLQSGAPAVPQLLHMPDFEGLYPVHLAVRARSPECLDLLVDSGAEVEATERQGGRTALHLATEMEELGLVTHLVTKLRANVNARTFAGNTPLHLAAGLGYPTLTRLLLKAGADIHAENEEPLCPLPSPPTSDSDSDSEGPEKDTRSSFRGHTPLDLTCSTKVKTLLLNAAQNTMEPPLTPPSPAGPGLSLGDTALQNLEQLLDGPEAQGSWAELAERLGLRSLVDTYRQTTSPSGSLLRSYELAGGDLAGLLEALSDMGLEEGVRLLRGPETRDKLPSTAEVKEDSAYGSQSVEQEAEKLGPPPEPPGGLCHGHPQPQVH
T1 sequence (Q04206 whole entry, looked up): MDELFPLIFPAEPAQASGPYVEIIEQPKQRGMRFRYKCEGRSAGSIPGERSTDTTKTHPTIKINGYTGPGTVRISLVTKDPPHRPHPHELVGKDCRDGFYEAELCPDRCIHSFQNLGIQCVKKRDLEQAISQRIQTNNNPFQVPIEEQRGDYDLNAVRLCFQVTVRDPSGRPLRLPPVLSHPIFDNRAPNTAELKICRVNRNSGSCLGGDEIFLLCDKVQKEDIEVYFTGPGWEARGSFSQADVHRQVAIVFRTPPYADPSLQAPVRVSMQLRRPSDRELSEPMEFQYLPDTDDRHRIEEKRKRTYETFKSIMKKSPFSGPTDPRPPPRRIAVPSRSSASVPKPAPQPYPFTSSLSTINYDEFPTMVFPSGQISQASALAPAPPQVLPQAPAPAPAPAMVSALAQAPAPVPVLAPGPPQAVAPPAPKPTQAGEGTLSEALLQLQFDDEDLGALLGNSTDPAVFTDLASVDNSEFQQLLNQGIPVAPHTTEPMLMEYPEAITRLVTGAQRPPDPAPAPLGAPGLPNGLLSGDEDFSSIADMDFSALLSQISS

C=C1C(=O)O[C@@H]2C3O[C@]3(C)CC/C=C(\C)CC[C@@H]12 (stereo partly drawn)
inhibition [1]: Active
inhibition [2]: Active
inhibition [3]: Active
inhibition [4]: Active

COc1ccc(-c2cc(=O)c3c(O)cc(O)cc3o2)cc1
inhibition [5]: Active
inhibition [6]: Active
inhibition [7]: Active
inhibition [8]: Active

COc1ccc(-c2cc(=O)c3c(O)cc(O)cc3o2)cc1O
inhibition [5]: Active
inhibition [6]: Active
inhibition [7]: Active
inhibition [8]: Active

COc1cccc2c1C(=O)c1c(O)c3c(c(O)c1C2=O)C[C@@](O)(C(=O)CO)C[C@@H]3O[C@H]1C[C@H](N)[C@H](O)[C@H](C)O1
Activity (MDA-MB-231 [9]): Active

O=c1c(O)c(-c2ccc(O)c(O)c2)oc2c(O)c(O)cc(O)c12
Activity [10]: Active
Activity [11]: Active

O=c1c(O)c(-c2ccc(O)c(O)c2)oc2cc(O)c(O)c(O)c12
Activity [10]: Active
Activity [11]: Active

O=c1c(O)c(-c2ccc(O)c(O)c2)oc2cc(O)cc(O)c12
inhibition [5]: Active
inhibition [6]: Active
inhibition [7]: Active
inhibition [8]: Active
inhibition (MDA-MB-231 [12]): inactive
Activity (MDA-MB-231 [13]): Active

COc1cc(-c2cc(=O)c3c(O)cc(O)cc3o2)ccc1O [CHRYSOERIOL]
fold change (FC) [14]: 0.708
fold change (FC) [15]: 0.361
fold change (FC) [16]: 0.208
fold change (FC) [5]: 0.211
fold change (FC) [17]: 0.204
fold change (FC) [18]: 3.67
fold change (FC) [6]: 2.11
fold change (FC) [19]: 1.33
inhibition [7]: Active
inhibition [8]: Active
inhibition [20]: 80%
Activity (MDA-MB-231 [21]): <10%
Activity (MDA-MB-231 [22]): <10%
Activity (MDA-MB-231 [23]): 10%
Activity (MDA-MB-231 [24]): 10%
Activity (MDA-MB-231 [25]): Dose-dependent effect
Activity (MDA-MB-231 [26]): Dose-dependent effect
MNTC at 48 h [27]: 25 µM
Activity (MDA-MB-231 [28]): 34%
Activity (MDA-MB-231 [29]): 27%
Activity (MDA-MB-231 [30]): 39%
inhibition (MDA-MB-231 [12]): Dose-dependent effect
inhibition (MDA-MB-231 [31]): Dose-dependent effect
Activity (MDA-MB-231 [32]): inactive
inhibition [33]: Active
